The assay concerns gamma-secretase. Kind of assay: gamma-secretase activity in a solubilized membrane preparation (cell-free assay per McLendon et al.). It is filed as biochemical. The note with it: read-out: IC50 activity for inhibiting gamma-secretase activity. As for the experimental part:
The activity of compounds of the invention in inhibiting gamma-secretase activity was determined in a solubilized membrane preparation generally according to the description provided in McLendon et al. Cell-free assays for γ-secretase activity, The FASEB Journal (Vol. 14, December 2000, pp. 2383-2386).

Each structure is given as a SMILES string.

On to `O=C(Cc1cc(F)cc(F)c1)NC(C(=O)Nc1cc(-c2ccccc2)n[nH]1)c1ccccc1` (centres unmarked) [Example 84, 2-[2-(3,5-difluoro-phenyl)-acetylamino]-2-phenyl-N-(5-phenyl-2H-pyrazol-3-yl)-acetamide], for which the IC50 is roughly 1000 nM.
To `CCCC(NC(=O)CC(C)CCC=C(C)C)C(=O)Nc1cc(-c2ccccc2)n[nH]1` (centres unmarked) [Example 138, 3,7-Dimethyl-oct-6-enoic acid [1-(5-phenyl-2H-pyrazol-3-ylcarbamoyl)-butyl]-amide] belongs roughly 5000 nM.

What is called IC50 is the concentration needed to halve the response being measured.

Source of the values: patent US7521464B2, “Pyrazole compounds for treatment of neurodegenerative disorders” (Pfizer Inc., priority 2002, dated 2009).
